The source of these data is US4064137A (priority 1976, dated 1977).

In one assay the test system is spleen cells of a mouse. The class given is cell-based.
In a further assay the test system is Vaccinia virus. The class given is in vivo, mouse. The settings on record: for Number of pox / Inhibition percent: intraperitoneal; for Number of pox: 8th day after inoculation; for Inhibition percent: 8th day, vs control mouse.

Where “and” joins values, the source holds several entries; their conditions need not be identical. Equal entries are not always repeated. Where two headings read alike, the source gives them in different places.

For the compound `COC(=O)C1N2C(=O)C3(CC(C#N)=C(c4ccccc4)N3)C2SC1(C)C` (stereo not drawn) [3'-Cyano-2'-phenyl-2'-pyrroline-5'-spiro-6-penicillanic acid methyl ester], in the assay on spleen cells of a mouse, the Interferon titre was 320 unit and 160 unit; the “units of interferon induced” value is reported as 320 units. For the same compound, in the assay with Vaccinia virus (0.49 mg/kg × 4 times), the Number of pox came to 16.0 and the Inhibition percent turned out to be 34.7%. In addition, in the assay on Vaccinia virus (1.95 mg/kg × 4 times), the Number of pox was 9.1 and the Inhibition percent was found to be 62.9%. In the assay on Vaccinia virus (7.8 mg/kg × 4 times), this compound showed a Number of pox of 11.2 and an Inhibition percent of 54.3%. The “interferon inducibility (in words)” value with Vaccinia virus (conclusion after in vivo test) is “excellent interferon inducibility”.
